This is an account of results in ChEMBL document CHEMBL1201862, “PubChem BioAssay data set” (2004).

Test systems include OVCAR-3; TK-10; HCT-116; MDA-MB-231; LOX IMVI; 786-0; SF-539; UACC-257; EKVX; MDA-MB-435; SK-OV-3; UACC-62; SR; OVCAR-5; COLO 205; SNB-19; NCI/ADR-RES; M14; HOP-92; SNB-75.
Common to all, as to experiment: inhibition of tumour cell growth, NCI panel, 48 h

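96-well plates; 48 h exposure; 5 concentrations. Endpoints by linear interpolation between flanking doses. Not reached: highest tested concentration assigned. GI50 is the concentration that inhibits growth by half.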 Calls of active or inactive are those of the source. No stated cut-off is given here; in the data, active = GI50 up to about 1.1 µM and inactive = higher. A value given as a limit tells only on which side of the number the result lay.

In the case of `COC(=O)CN(CC(=O)NCCNC(=O)OC(C)(C)C)C1CCCCC1N(CC(=O)OC)CC(=O)OC` (centres undefined), the GI50 with OVCAR-3, in the assay on TK-10, with HCT-116, in the assay on MDA-MB-231, with LOX IMVI and with 786-0 was > 100 µM (inactive) each time. Further, the GI50 in the assay with SF-539, with UACC-257, in the assay with EKVX, in the assay with MDA-MB-435, in the assay with SK-OV-3 and in the assay with UACC-62 was > 100 µM (inactive) each time. For the same compound, the GI50 with SR, in the assay on OVCAR-5, in the assay with COLO 205, with SNB-19 and in the assay on NCI/ADR-RES was > 100 µM (inactive) in each case.

As to `CNN1C(=O)c2c(N)c(C#N)c(-c3ccccc3)c(-c3ccccc3)c2C1=O`, the GI50 in the assay on OVCAR-3 is 34.6 µM (inactive); in the assay on TK-10, > 100 µM (inactive); with HCT-116, 44.1 µM (inactive); in the assay on MDA-MB-231, > 100 µM (inactive); in the assay on LOX IMVI, > 100 µM (inactive); with 786-0, 91.6 µM (inactive). Moreover, the GI50 in the assay with SF-539 is 57.7 µM (inactive); in the assay on UACC-257, > 100 µM (inactive); in the assay with M14, > 100 µM (inactive); in the assay with HOP-92, > 100 µM (inactive); in the assay on EKVX, > 100 µM (inactive); with MDA-MB-435, > 100 µM (inactive). Moreover, the GI50 in the assay with SNB-75 is 83.4 µM (inactive); with UACC-62, > 100 µM (inactive); with SR, 76.7 µM (inactive); in the assay with OVCAR-5 it was 30.3 µM (inactive); in the assay with COLO 205 it was > 100 µM (inactive); in the assay on SNB-19, > 100 µM (inactive). Further, the GI50 in the assay with NCI/ADR-RES was 82.2 µM (inactive).

Consider `O=C1Nc2cccc(C(F)(F)F)c2/C1=N/Nc1ccccc1[N+](=O)[O-]`, for which the GI50 was 17.5 µM (inactive) in the assay with OVCAR-3; 14.8 µM (inactive) with TK-10; 37.6 µM (inactive) in the assay with HCT-116; 28.4 µM (inactive) with MDA-MB-231; 17.1 µM (inactive) in the assay on LOX IMVI; 15.5 µM (inactive) in the assay with 786-0. Besides, the GI50 is 10.3 µM (inactive) in the assay on UACC-257; > 100 µM (inactive) with M14; 11.6 µM (inactive) with EKVX; 18.7 µM (inactive) in the assay with MDA-MB-435; 30.2 µM (inactive) in the assay on SK-OV-3; 25.6 µM (inactive) in the assay on SNB-75. Further, the GI50 was 51.3 µM (inactive) in the assay with UACC-62; 0.912 µM (active) in the assay with SR; 86.5 µM (inactive) in the assay with OVCAR-5; 29.4 µM (inactive) with COLO 205; 51.5 µM (inactive) in the assay on SNB-19; 30.8 µM (inactive) in the assay on NCI/ADR-RES.

Turning to `COc1cc(OC)nc(-n2c(N)c(C#N)c3ccc([N+](=O)[O-])cc3c2=O)n1`, the GI50 with OVCAR-3, with TK-10, with HCT-116, in the assay with MDA-MB-231, in the assay on LOX IMVI and in the assay on 786-0 was > 100 µM (inactive) each time. Moreover, the GI50 in the assay with SF-539, with UACC-257, with M14, with HOP-92, in the assay with EKVX and in the assay with MDA-MB-435 was > 100 µM (inactive) throughout. Besides, the GI50 with SNB-75, with UACC-62, in the assay on SR, in the assay on OVCAR-5, with COLO 205 and with SNB-19 was > 100 µM (inactive) throughout. Further, the GI50 in the assay with NCI/ADR-RES is > 100 µM (inactive).

Take `C1CCC(CC2CCC(NC3=NCCO3)CC2)CC1` (centres undefined): the GI50 with OVCAR-3 was 15.4 µM (inactive); in the assay on TK-10 it was 15.3 µM (inactive); with HCT-116, 15.5 µM (inactive); in the assay with MDA-MB-231, 19.4 µM (inactive); in the assay on LOX IMVI it was 16.1 µM (inactive); in the assay with 786-0, 15.2 µM (inactive). In addition, the GI50 is 16.8 µM (inactive) with SF-539; 16.4 µM (inactive) in the assay on UACC-257; 18.9 µM (inactive) in the assay on M14; 22.1 µM (inactive) with EKVX; 17.4 µM (inactive) in the assay on MDA-MB-435; 20.9 µM (inactive) in the assay on SK-OV-3. In addition, the GI50 was 18.2 µM (inactive) in the assay on SNB-75; 17.3 µM (inactive) with UACC-62; 24.4 µM (inactive) in the assay with SR; 23.6 µM (inactive) in the assay on OVCAR-5; 14.2 µM (inactive) with COLO 205; 17.3 µM (inactive) with SNB-19. The GI50 in the assay on NCI/ADR-RES is 19.4 µM (inactive).

Consider `C=CCOC1=C(OC(C)=O)C(=O)OC1C1COC(C)(C)O1` (centres undefined), for which the GI50 with OVCAR-3 is 17.5 µM (inactive); in the assay with TK-10, 67 µM (inactive); in the assay on HCT-116, 26.2 µM (inactive); in the assay on MDA-MB-231 it was 38.4 µM (inactive); in the assay with LOX IMVI, 18.1 µM (inactive); in the assay on 786-0, 32.1 µM (inactive). Also, the GI50 is 37.1 µM (inactive) in the assay with SF-539; 60.3 µM (inactive) in the assay with UACC-257; 36 µM (inactive) in the assay with M14; 27.5 µM (inactive) in the assay with EKVX; 34.3 µM (inactive) in the assay on MDA-MB-435; > 100 µM (inactive) with SK-OV-3. Moreover, the GI50 in the assay with SNB-75 was > 36.3 µM (inactive); in the assay with UACC-62 it was 57 µM (inactive); with SR, 5.58 µM (inactive); in the assay on OVCAR-5, 60 µM (inactive); in the assay with COLO 205 it was 29.6 µM (inactive); in the assay with SNB-19 it was > 74.3 µM (inactive). Moreover, in the assay with NCI/ADR-RES, the GI50 is > 61.5 µM (inactive).

With `CNC(=O)OCc1cnc([N+](=O)[O-])n1C`, the GI50 in the assay on OVCAR-3, in the assay on TK-10, in the assay with HCT-116, in the assay with MDA-MB-231, with LOX IMVI and in the assay with 786-0 was > 100 µM (inactive) throughout. For the same compound, the GI50 in the assay on SF-539, with UACC-257, in the assay on HOP-92, in the assay with EKVX, with MDA-MB-435 and with SNB-75 was > 100 µM (inactive) throughout. The GI50 with SR, in the assay with OVCAR-5, with COLO 205 and with NCI/ADR-RES was > 100 µM (inactive) in each case.

For the compound `CC(=O)/N=C1/N(/C=C2\C(=O)Oc3ccccc3C2=O)C(=O)/C(=C/c2ccccc2Cl)N1C`, the GI50 in the assay on HCT-116, with MDA-MB-231, in the assay on LOX IMVI, in the assay with 786-0, in the assay with SF-539 and in the assay on UACC-257 was > 100 µM (inactive) in each case. Besides, the GI50 in the assay on M14 was > 100 µM (inactive); in the assay with EKVX, 84.9 µM (inactive); in the assay on MDA-MB-435, > 100 µM (inactive); in the assay on SK-OV-3 it was > 100 µM (inactive); in the assay on SNB-75, 22.2 µM (inactive); in the assay with UACC-62, > 100 µM (inactive). Moreover, the GI50 was 69.3 µM (inactive) in the assay on SR; > 100 µM (inactive) in the assay on OVCAR-5; > 100 µM (inactive) in the assay with COLO 205; 95.3 µM (inactive) in the assay with SNB-19; 84.9 µM (inactive) in the assay with NCI/ADR-RES.
